Target: NAMPT (Homo sapiens, UniProt P43490)
Test: Assay for in vitro NAMPT activity via NMN assessment
Type: biochemical
Settings: read-out: A: NAMPT enzyme inhibitory activity, IC50
Procedure: The following were added to a well: 20 μL 2× test compound in Basic Buffer (0.02% BSA, 2 mM DTT, 12 mM MgCl2, 50 mM Tris pH7.5); 10 μL 8 μg/mL NAMPT, and 200 μM PRPP working solution (or PRPP working solution to background wells). 10 μL 100 μM NAM working solution was added to start the reaction. The plate was sealed and incubated for 45 minutes at 37° C. After incubation, 10 μL 20% acetophenone in DMSO, 10 μL 2N KOH, and 20 μL 88% formic acid were added. The plate was sealed and incubated for 30 minutes at 37° C. After incubation, fluorescence at Ex/Em 387/441 was read.
In each table header, A: NAMPT enzyme inhibitory activity, IC50 (μM); B: Cellular NAD inhibitory activity, IC50 (μM); and C: change in NAD levels in response to test compound, shown as % of NAD activity in the absence of test compound. […] A percentage of 100 percent would indicate no increase or decrease in NAD levels as compared to that measured for untreated control cells, while a percentage of 50 percent would indicate a decrease in NAD levels of 50 percent as compared to that measured for untreated control cells.

Chain of NAMPT (P43490 whole entry, species assumed): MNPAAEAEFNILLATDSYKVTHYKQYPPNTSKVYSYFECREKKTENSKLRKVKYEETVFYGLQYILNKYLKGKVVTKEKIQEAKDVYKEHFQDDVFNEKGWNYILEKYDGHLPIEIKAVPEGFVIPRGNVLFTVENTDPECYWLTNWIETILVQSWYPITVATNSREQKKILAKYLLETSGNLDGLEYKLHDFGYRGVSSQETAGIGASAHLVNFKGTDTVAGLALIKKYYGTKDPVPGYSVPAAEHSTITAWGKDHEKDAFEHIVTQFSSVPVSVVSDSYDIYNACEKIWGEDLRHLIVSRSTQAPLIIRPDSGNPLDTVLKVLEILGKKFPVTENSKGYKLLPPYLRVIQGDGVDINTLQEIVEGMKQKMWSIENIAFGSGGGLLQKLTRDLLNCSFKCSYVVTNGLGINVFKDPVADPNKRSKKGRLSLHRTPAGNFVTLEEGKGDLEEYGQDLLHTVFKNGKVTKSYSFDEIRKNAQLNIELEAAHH

Structure (SMILES) | IC50
CN1CCN(Cc2cccc(-c3nc4ccc(C(=O)N5CCN(C)CC5)cc4nc3-c3ccc(F)cc3)c2)CC1 [BC20249] | ≥ 25 µM
CC(C)CC(=O)N1CCC[C@H](CNC(=O)c2ccc3nc(-c4ccc(F)cc4)c(-c4ccc(F)cc4)nc3c2)C1 [BC20292] | ≥ 25 µM
CN1CCN(C(=O)c2ccc3nc(-c4cccc(CN5CCCC5)c4)c(-c4cccc(CN5CCCC5)c4)nc3c2)CC1 [BC20242] | ≥ 25 µM
CC(=O)NCc1cccc(-c2nc3cc(C(=O)N4CCN(C)CC4)ccc3nc2-c2ccc(F)cc2)c1 [BC20230] | ≥ 25 µM
CS(=O)(=O)N1CCCC(NC(=O)NCc2ccc3nc(-c4ccc(F)cc4)c(-c4ccc(F)cc4)nc3c2)C1 (centres unmarked) [BC20253] | ≥ 25 µM
CS(=O)(=O)N1CCC[C@H](CNC(=O)c2ccc3nc(-c4ccc(F)cc4)c(-c4ccc(F)cc4)nc3c2)C1 [BC20270] | ≥ 25 µM
O=C(NCc1ccccc1)Nc1cnc2nc(-c3ccc(F)cc3)c(-c3ccc(F)cc3)nc2c1 [BC20207] | ≥ 25 µM
CN1CCCC(NC(=O)Nc2ccc3nc(-c4ccc(F)cc4)c(-c4ccc(F)cc4)nc3c2)C1 (centres unmarked) [BC20237] | ≥ 25 µM
COCC(=O)Nc1cccc(-c2nc3ccc(C(=O)N4CCN(C)CC4)cc3nc2-c2ccc(F)cc2)c1 [BC20245] | ≥ 25 µM
CN(C)CC(=O)NCc1cccc(-c2nc3cc(C(=O)N4CCN(C)CC4)ccc3nc2-c2ccc(F)cc2)c1 [BC20263] | ≥ 25 µM
CN1CCC[C@H](CNC(=O)NCc2ccc3nc(-c4ccc(F)cc4)c(-c4ccc(F)cc4)nc3c2)C1 [BC20294] | ≥ 25 µM
CN1CCN(C(=O)c2ccc3nc(-c4ccc(F)cc4)c(-c4cccc(NS(C)(=O)=O)c4)nc3c2)CC1 [BC20210] | ≥ 25 µM
CC(=O)NCc1cccc(-c2nc3ccc(C(=O)N4CCN(C)CC4)cc3nc2-c2ccc(F)cc2)c1 [BC20306] | ≥ 25 µM
CN1CCN(C(=O)c2ccc3nc(-c4cccc(CN5CCCC5)c4)c(-c4ccc(F)cc4)nc3c2)CC1 [BC20248] | ≥ 25 µM
O=C(Nc1cnc2nc(-c3ccc(F)cc3)c(-c3ccc(F)cc3)nc2c1)NC1CCCNC1 (centres unmarked) [BC20255] | ≥ 25 µM
COCC(=O)NCc1cccc(-c2nc3ccc(C(=O)N4CCN(C)CC4)cc3nc2-c2cccc(CNC(=O)COC)c2)c1 [BC20273] | ≥ 25 µM
CN1CCN(C(=O)c2ccc3nc(-c4cccc(NS(C)(=O)=O)c4)c(-c4ccc(F)cc4)nc3c2)CC1 [BC20290] | ≥ 25 µM
C#CCNC(=O)c1ccc2nc(-c3cccc(CNC(C)=O)c3)c(-c3cccc(CNC(C)=O)c3)nc2c1 [BC20274] | ≥ 25 µM
C#CCNC(=O)c1ccc2nc(-c3cccc(CNS(C)(=O)=O)c3)c(-c3cccc(CNS(C)(=O)=O)c3)nc2c1 [BC20261] | ≥ 25 µM
CN1CCN(C(=O)c2ccc3nc(-c4ccc(F)cc4)c(-c4cccc(N(C)C)c4)nc3c2)CC1 [BC20262] | ≥ 25 µM
O=C(Nc1ccc2nc(-c3ccc(F)cc3)c(-c3ccc(F)cc3)nc2c1)NC1CCCNC1 (centres unmarked) [BC20225] | ≥ 25 µM
CC(=O)NCc1cccc(-c2nc3ccc(C(=O)N4CCN(C)CC4)cc3nc2-c2cccc(CNC(C)=O)c2)c1 [BC20272] | ≥ 25 µM
CN1CCN(C(=O)c2ccc3nc(-c4cccc(CNS(C)(=O)=O)c4)c(-c4cccc(CNS(C)(=O)=O)c4)nc3c2)CC1 [BC20259] | ≥ 25 µM
COCC(=O)NCc1cccc(-c2nc3ccc(C(=O)N4CCN(C)CC4)cc3nc2-c2ccc(F)cc2)c1 [BC20296] | ≥ 25 µM
C#CCNC(=O)Nc1cnc2nc(-c3ccc(F)cc3)c(-c3ccc(F)cc3)nc2c1 [BC20297] | ≥ 25 µM
C#CCNC(=O)c1ccc2nc(-c3ccc(F)cc3)c(-c3cccc(NC(C)=O)c3)nc2c1 [BC20222] | ≥ 25 µM
CC(=O)Nc1cccc(-c2nc3ccc(C(=O)N4CCN(C)CC4)cc3nc2-c2cccc(NC(C)=O)c2)c1 [BC20241] | ≥ 25 µM
CN(C)Cc1cccc(-c2nc3ccc(C(=O)N4CCN(C)CC4)cc3nc2-c2cccc(CN(C)C)c2)c1 [BC20260] | ≥ 25 µM
CN(C)Cc1cccc(-c2nc3cc(C(=O)N4CCN(C)CC4)ccc3nc2-c2ccc(F)cc2)c1 [BC20215] | ≥ 25 µM
C#CCNC(=O)c1ccc2nc(-c3cccc(CN(C)C)c3)c(-c3ccc(F)cc3)nc2c1 [BC20234] | ≥ 25 µM

Continued, values first:

IC50 | Structure (SMILES)
≥ 25 µM | CN(C)CCNC(=O)Nc1cnc2nc(-c3ccc(F)cc3)c(-c3ccc(F)cc3)nc2c1 [BC20312]
≥ 25 µM | C#CCNC(=O)c1ccc2nc(-c3cccc(NC(=O)CN(C)C)c3)c(-c3ccc(F)cc3)nc2c1 [BC20266]
≥ 25 µM | CC(=O)N1CCCC(NC(=O)Nc2cnc3nc(-c4ccc(F)cc4)c(-c4ccc(F)cc4)nc3c2)C1 (centres unmarked) [BC20239]
≥ 25 µM | O=C1NCCCN1c1ccc2nc(-c3ccc(F)cc3)c(-c3ccc(F)cc3)nc2c1 [BC20218]
≥ 25 µM | C#CCNC(=O)c1ccc2nc(-c3ccc(F)cc3)c(-c3cccc(N(C)C)c3)nc2c1 [BC20244]
≥ 25 µM | CN(C)CC(=O)Nc1cccc(-c2nc3cc(C(=O)N4CCN(C)CC4)ccc3nc2-c2ccc(F)cc2)c1 [BC20229]
≥ 25 µM | COCC(=O)Nc1cccc(-c2nc3cc(C(=O)N4CCN(C)CC4)ccc3nc2-c2ccc(F)cc2)c1 [BC20209]
≥ 25 µM | O=C(NCc1ccc2nc(-c3ccc(F)cc3)c(-c3ccc(F)cc3)nc2c1)NC1CCCNC1 (centres unmarked) [BC20250]
≥ 25 µM | CC(=O)N1CCC[C@H](CNC(=O)c2ccc3nc(-c4ccc(F)cc4)c(-c4ccc(F)cc4)nc3c2)C1 [BC20271]
≥ 25 µM | O=C(NCCN1CCCC1)c1cnc2nc(-c3ccc(F)cc3)c(-c3ccc(F)cc3)nc2c1 [BC20202]
1 to 25 µM | O=C(NCc1cccnc1)c1cnc2nc(-c3ccc(F)cc3)c(-c3ccc(F)cc3)nc2c1 [BC20203]
≥ 25 µM | C#CCNC(=O)c1ccc2nc(-c3cccc(CNC(=O)CN(C)C)c3)c(-c3cccc(CNC(=O)CN(C)C)c3)nc2c1 [BC20289]
≥ 25 µM | CN1CCN(Cc2cccc(-c3nc4ccc(C(=O)N5CCN(C)CC5)cc4nc3-c3cccc(CN4CCN(C)CC4)c3)c2)CC1 [BC20243]
≥ 25 µM | C#CCCC(=O)N1CCC[C@H](CNC(=O)c2ccc3nc(-c4ccc(F)cc4)c(-c4ccc(F)cc4)nc3c2)C1 [BC20295]
≥ 25 µM | COCC(=O)NCc1cccc(-c2nc3cc(C(=O)N4CCN(C)CC4)ccc3nc2-c2ccc(F)cc2)c1 [BC20264]
< 1 µM | O=C(NCCc1ccncc1)c1cnc2nc(-c3ccc(F)cc3)c(-c3ccc(F)cc3)nc2c1 [BC20206]
≥ 25 µM | O=C(NCc1ccncc1)c1cnc2nc(-c3ccc(F)cc3)c(-c3ccc(F)cc3)nc2c1 [BC20204]
≥ 25 µM | COCC(=O)N1CCC[C@H](CNC(=O)c2ccc3nc(-c4ccc(F)cc4)c(-c4ccc(F)cc4)nc3c2)C1 [BC20281]
1 to 25 µM | CN1CCC[C@H](CNC(=O)c2ccc3nc(-c4ccc(F)cc4)c(-c4ccc(F)cc4)nc3c2)C1 [BC20280]

IC50 | Structure (SMILES)
≥ 25 µM | CN1CCCC(NC(=O)NCc2ccc3nc(-c4ccc(F)cc4)c(-c4ccc(F)cc4)nc3c2)C1 (centres unmarked) [BC20251]
≥ 25 µM | C#CCNC(=O)c1ccc2nc(-c3ccc(F)cc3)c(-c3cccc(CO)c3)nc2c1 [BC20220]
≥ 25 µM | CC(=O)Nc1cccc(-c2nc3cc(C(=O)N4CCN(C)CC4)ccc3nc2-c2ccc(F)cc2)c1 [BC20208]
1 to 25 µM | CS(=O)(=O)N1CCC[C@H](CNC(=O)NCc2ccc3nc(-c4ccc(F)cc4)c(-c4ccc(F)cc4)nc3c2)C1 [BC20284]
≥ 25 µM | CC(=O)N1CCCC(NC(=O)NCc2ccc3nc(-c4ccc(F)cc4)c(-c4ccc(F)cc4)nc3c2)C1 (centres unmarked) [BC20252]
≥ 25 µM | CN1CCN(C(=O)c2ccc3nc(-c4ccc(F)cc4)c(-c4cccc(CN5CCCC5)c4)nc3c2)CC1 [BC20265]
≥ 25 µM | Fc1ccc(-c2nc3cc4[nH]c(=S)n(CCc5cccnc5)c4nc3nc2-c2ccc(F)cc2)cc1 [BC20305]
≥ 25 µM | C#CCNC(=O)c1ccc2nc(-c3ccc(F)cc3)c(-c3cccc(NS(C)(=O)=O)c3)nc2c1 [BC20212]
≥ 25 µM | C#CCNC(=O)c1ccc2nc(-c3ccc(F)cc3)c(-c3cccc(NC(=O)COC)c3)nc2c1 [BC20211]
≥ 25 µM | CN1CCN(C(=O)c2ccc3nc(-c4cccc(NS(C)(=O)=O)c4)c(-c4cccc(NS(C)(=O)=O)c4)nc3c2)CC1 [BC20258]
≥ 25 µM | CN1CCN(C(=O)c2ccc3nc(-c4cccc(N(C)C)c4)c(-c4ccc(F)cc4)nc3c2)CC1 [BC20246]
1 to 25 µM | CC(=O)N1CCCC(CNC(=O)NCc2ccc3nc(-c4ccc(F)cc4)c(-c4ccc(F)cc4)nc3c2)C1 (centres unmarked) [BC20301]
≥ 25 µM | C#CCNC(=O)c1ccc2nc(-c3ccc(F)cc3)c(-c3cccc(CNC(=O)COC)c3)nc2c1 [BC20276]
≥ 25 µM | CN1CCN(C(=O)c2ccc3nc(-c4ccc(F)cc4)c(-c4cccc(CNS(C)(=O)=O)c4)nc3c2)CC1 [BC20231]
1 to 25 µM | C#CCNC(=O)c1ccc2nc(-c3cccc(NS(C)(=O)=O)c3)c(-c3ccc(F)cc3)nc2c1 [BC20247]
1 to 25 µM | O=C(NCc1ccc2nc(-c3ccc(F)cc3)c(-c3ccc(F)cc3)nc2c1)NC[C@H]1CCCNC1 [BC20285]
1 to 25 µM | CS(=O)(=O)N1CCCC(NC(=O)Nc2ccc3nc(-c4ccc(F)cc4)c(-c4ccc(F)cc4)nc3c2)C1 (centres unmarked) [BC20238]
1 to 25 µM | CC(=O)N1CCC[C@H](CNC(=O)Nc2ccc3nc(-c4ccc(F)cc4)c(-c4ccc(F)cc4)nc3c2)C1 [BC20299]
< 1 µM | O=C(NCCc1cccnc1)Nc1ccc2nc(-c3ccc(F)cc3)c(-c3ccc(F)cc3)nc2n1 [BC20310]

— patent publication US20230321086A1, “METHODS AND MATERIALS FOR INHIBITING NICOTINAMIDE PHOSPHORIBOSYLTRANSFERASE ACTIVITY” (Universiy of Pittsburgh - Of the Commonwealth System of …, priority 2020, published 2023)
